Results: US20260317324A1, “BIFUNCTIONAL COMPOUNDS FOR DEGRADING BRAF VIA UBIQUITIN PROTEOSOME PATHWAY” (Nurix Therapeutics, Inc., priority 2023, published 2026)

Legend:
Format in all cases: cell-based
[1] = target: T1, BRAF G466V (Homo sapiens, UniProt P15056, G466V); assay: BRAF HiBiT degradation assay, C-terminal HiBiT-tagged BRAF G466V overexpressed in HCT-116 BRAF−/− cells (clone 8), Nano-Glo HiBiT Lytic assay
T1 construct: Horizon Discovery (HCT-116 BRAF−/− cells); host or cells: HCT-116 BRAF−/− cells, clone 8, lentiviral transduction
T1 sequence (P15056 whole entry G466V): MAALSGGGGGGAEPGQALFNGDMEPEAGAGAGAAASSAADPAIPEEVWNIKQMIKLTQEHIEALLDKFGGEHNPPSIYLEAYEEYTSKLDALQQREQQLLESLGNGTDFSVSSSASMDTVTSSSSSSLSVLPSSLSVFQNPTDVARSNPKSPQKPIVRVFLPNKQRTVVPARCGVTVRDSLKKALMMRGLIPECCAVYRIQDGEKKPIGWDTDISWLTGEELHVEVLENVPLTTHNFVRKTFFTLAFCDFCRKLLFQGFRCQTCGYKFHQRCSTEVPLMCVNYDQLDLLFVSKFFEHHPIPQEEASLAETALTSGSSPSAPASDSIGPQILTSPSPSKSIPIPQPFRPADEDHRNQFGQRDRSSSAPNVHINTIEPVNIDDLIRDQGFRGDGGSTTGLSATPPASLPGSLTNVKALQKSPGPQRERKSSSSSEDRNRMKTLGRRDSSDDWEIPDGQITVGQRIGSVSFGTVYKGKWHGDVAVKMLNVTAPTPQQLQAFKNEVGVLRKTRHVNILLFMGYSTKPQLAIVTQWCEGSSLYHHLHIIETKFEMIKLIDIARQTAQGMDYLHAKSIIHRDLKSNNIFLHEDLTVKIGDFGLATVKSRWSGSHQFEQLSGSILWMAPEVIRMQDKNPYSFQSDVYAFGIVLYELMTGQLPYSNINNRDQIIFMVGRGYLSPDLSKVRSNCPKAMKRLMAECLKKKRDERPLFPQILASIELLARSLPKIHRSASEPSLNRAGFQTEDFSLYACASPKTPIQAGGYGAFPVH
Method in brief: (§1)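 HCT-116 BRAF−/− cells stably expressing the tagged mutant were seeded at 3,000 cells/well and grown 24 h at 37 °C before an 11-point half-log series from 1 μM to 0.01 nM, run in duplicate at 0.2% DMSO. Lytic HiBiT luminescence gave % protein remaining versus DMSO controls; DC50 was the fitted concentration at 50%.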

[2] = target: T2, BRAF G469A (Homo sapiens, UniProt P15056, G469A); assay: BRAF HiBiT degradation assay, C-terminal HiBiT-tagged BRAF G469A overexpressed in HCT-116 BRAF−/− cells (clone 34), Nano-Glo HiBiT Lytic assay
T2 construct: Horizon Discovery (HCT-116 BRAF−/− cells); host or cells: HCT-116 BRAF−/− cells, clone 34, lentiviral transduction
T2 sequence (P15056 whole entry G469A): as the sequence (P15056 whole entry G466V) above, with V466G, G469A counted along it
Method in brief: as §1

[3] = target: T3, BRAF D594G (Homo sapiens, UniProt P15056, D594G); assay: BRAF HiBiT degradation assay, C-terminal HiBiT-tagged BRAF D594G overexpressed in HCT-116 BRAF−/− cells (clone 63), Nano-Glo HiBiT Lytic assay
T3 construct: Horizon Discovery (HCT-116 BRAF−/− cells); host or cells: HCT-116 BRAF−/− cells, clone 63, lentiviral transduction
T3 sequence (P15056 whole entry D594G): as the sequence (P15056 whole entry G466V) above, with V466G, D594G counted along it
Method in brief: as §1

[4] = target: T4, BRAF V600E (Homo sapiens, UniProt P15056, V600E); assay: BRAF HiBiT degradation assay, C-terminal HiBiT-tagged BRAF V600E A375 cells (clone 1F10), Nano-Glo HiBiT Lytic assay; conditions: for Dmax: A-375
T4 construct: endogenous C-terminal HiBiT fusion tag on BRAF V600E allele; endogenous in cells; host or cells: A375 clone 1F10 (CRISPR-Cas9 knock-in of the HiBiT tag; parental A375 from ATCC)
T4 sequence (P15056 whole entry V600E, the tested form may be a part): as the sequence (P15056 whole entry G466V) above, with V466G, V600E counted along it
Method in brief: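 A375 cells with CRISPR knock-in C-terminal HiBiT on endogenous BRAF V600E (clone 1F10) were seeded and cultured 24 h at 37 °C, then dosed with an 11-point half-log series (1 μM to 0.01 nM, duplicate, 0.2% DMSO). Lytic HiBiT luminescence gave % protein remaining; DC50 was the fitted concentration at 50%.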

[5] = BRAF G466V (Class 3), HCT-116 BRAF−/− cells, DC50 at 50% degradation
[6] = BRAF G466V (Class 3), HCT-116 BRAF−/− cells, observed Dmax relative to DMSO control
[7] = BRAF G469A (Class 2), HCT-116 BRAF−/− cells, DC50 at 50% degradation
[8] = BRAF G469A (Class 2), HCT-116 BRAF−/− cells, observed Dmax relative to DMSO control
[9] = BRAF D594G (Class 3), HCT-116 BRAF−/− cells, DC50 at 50% degradation
[10] = BRAF D594G (Class 3), HCT-116 BRAF−/− cells, observed Dmax relative to DMSO control
[11] = A375 (BRAF V600E, Class 1), DC50 at 50% degradation
[12] = A375 (BRAF V600E, Class 1), observed Dmax, % protein degraded relative to DMSO control
[13] = BRAF G466V, DC50 at 50%: fitted conc. at Y=50
[14] = HCT-116, BRAF G466V, percentage protein degraded at maximal compound effect relative to DMSO
[15] = Class 2, BRAF G469A, DC50 at 50%: fitted conc. at Y=50
[16] = HCT-116, Class 2, BRAF G469A, percentage protein degraded at maximal compound effect relative to DMSO
[17] = BRAF D594G, DC50 at 50%: fitted conc. at Y=50
[18] = HCT-116, BRAF D594G, percentage protein degraded at maximal compound effect relative to DMSO
[19] = A375 (BRAF V600E), DC50 at 50%: fitted conc. at Y=50
[20] = A375 (BRAF V600E), percentage protein degraded at maximal compound effect relative to DMSO

DC50 [1, 5] | Dmax [1, 6] | DC50 [2, 7] | Dmax [2, 8] | DC50 [3, 9] | Dmax [3, 10] | DC50 [4, 11] | Dmax [4, 12] | DC50 [1, 13] | Dmax [1, 14] | DC50 [2, 15] | Dmax [2, 16] | DC50 [3, 17] | Dmax [3, 18] | DC50 [4, 19] | Dmax [4, 20] | Compound
< 10 nM | > 70% | 10 to 50 nM | > 70% | < 10 nM | 30 to 70% | < 10 nM | > 70% | – | – | – | – | – | – | – | – | CCN(C)S(=O)(=O)Nc1cc(Cl)cc(-c2cn(-c3ccc(N4CCN(CC5CCN(c6ccc([C@H]7CCC(=O)NC7=O)cn6)CC5)CC4)cc3)nc2-c2ccncc2)c1F [Compound 309, (3R)-3-(6-{4-[(4-{4-[4-(5-chloro-3-{[ethyl(methyl)sulfamoyl]amino}-2-fluorophenyl)-3-(pyridin-4-yl)-1H-pyrazol-1-yl]phenyl}piperazin-1-yl)methyl]piperidin-1-yl}pyridin-3-yl)piperidine-2,6-dione]
– | – | – | – | – | – | – | – | 50 to 500 nM | < 30% | 50 to 500 nM | < 30% | 50 to 500 nM | < 30% | < 10 nM | > 70% | CCCS(=O)(=O)Nc1cccc(-c2nc(C(C)(C)C)sc2-c2ccnc(Nc3cnn(CC4CCN(CC5CCN(c6ccc7c(=O)n(C8CCC(=O)NC8=O)ccc7c6)CC5)CC4)c3)n2)c1F (racemic) [Compound 83, Rac-N-{3-[2-tert-butyl-5-(2-{[1-({1-[(1-{2-[(3R)-2,6-dioxopiperidin-3-yl]-1-oxo-1,2-dihydroisoquinolin-6-yl}piperidin-4-yl)methyl]piperidin-4-yl}methyl)-1H-pyrazol-4-yl]amino}pyrimidin-4-yl)-1,3-thiazol-4-yl]-2-fluorophenyl}propane-1-sulfonamide]
– | – | – | – | – | – | – | – | > 500 nM | < 30% | > 500 nM | < 30% | > 500 nM | 30 to 70% | 50 to 500 nM | > 70% | CCCS(=O)(=O)Nc1cccc(-c2nc(C(C)(C)C)sc2-c2ccnc(Nc3cnn(CC4CCN(C[C@H]5CC[C@H](Oc6ccc(C7CCC(=O)NC7=O)cc6)CC5)CC4)c3)n2)c1F (mixture of isomers) [Compound 84, N-(3-{2-tert-butyl-5-[2-({1-[(1-{[(1r,4r)-4-{4-[(3RS)-2,6-dioxopiperidin-3-yl]phenoxy}cyclohexyl]methyl}piperidin-4-yl)methyl]-1H-pyrazol-4-yl}amino)pyrimidin-4-yl]-1,3-thiazol-4-yl}-2-fluorophenyl)propane-1-sulfonamide]
– | – | – | – | – | – | – | – | > 500 nM | < 30% | > 500 nM | < 30% | > 500 nM | 30 to 70% | < 10 nM | > 70% | CCCS(=O)(=O)Nc1cccc(-c2nc(C(C)(C)C)sc2-c2ccnc(Nc3cnn(C4CCN(C(=O)CN5CCC(c6ccc(NC7CCC(=O)NC7=O)cc6)CC5)CC4)c3)n2)c1F (racemic) [Compound 108, Rac-N-{3-[2-tert-butyl-5-(2-{[1-(1-{2-[4-(4-{[(3R)-2,6-dioxopiperidin-3-yl]amino}phenyl)piperidin-1-yl]acetyl}piperidin-4-yl)-1H-pyrazol-4-yl]amino}pyrimidin-4-yl)-1,3-thiazol-4-yl]-2-fluorophenyl}propane-1-sulfonamide]
– | – | – | – | – | – | – | – | > 500 nM | < 30% | > 500 nM | < 30% | > 500 nM | 30 to 70% | 10 to 50 nM | > 70% | CCCS(=O)(=O)Nc1cccc(-c2nc(C(C)(C)C)sc2-c2ccnc(Nc3cnn(CC4CCN(C(=O)[C@@H]5CCN(c6ccc(C7CCC(=O)NC7=O)cn6)C5)CC4)c3)n2)c1F (mixture of isomers) [Compound 114, N-{3-[2-tert-butyl-5-(2-{[1-({1-[(3R)-1-{5-[(3RS)-2,6-dioxopiperidin-3-yl]pyridin-2-yl}pyrrolidine-3-carbonyl]piperidin-4-yl}methyl)-1H-pyrazol-4-yl]amino}pyrimidin-4-yl)-1,3-thiazol-4-yl]-2-fluorophenyl}propane-1-sulfonamide]
> 500 nM | 30 to 70% | > 500 nM | < 30% | > 500 nM | < 30% | < 10 nM | 30 to 70% | – | – | – | – | – | – | – | – | CCCS(=O)(=O)Nc1cccc(-c2nc(C3CCC4(CC3)CCN(CC3CCN(c5ccc6c(c5)CN(C5CCC(=O)NC5=O)C6=O)CC3)CC4)sc2-c2ccnc(N)n2)c1F (racemic) [Compound 258, Rac-N-{3-[5-(2-aminopyrimidin-4-yl)-2-{3-[(1-{2-[(3R)-2,6-dioxopiperidin-3-yl]-1-oxo-2,3-dihydro-1H-isoindol-5-yl}piperidin-4-yl)methyl]-3-azaspiro[5.5]undecan-9-yl}-1,3-thiazol-4-yl]-2-fluorophenyl}propane-1-sulfonamide]
– | – | – | – | – | – | – | – | > 500 nM | < 30% | > 500 nM | < 30% | > 500 nM | 30 to 70% | 50 to 500 nM | 30 to 70% | CCCS(=O)(=O)Nc1cccc(-c2nc(C(C)(C)C)sc2-c2ccnc(Nc3cccc(OC4CCN(CC[C@@H]5CCN(c6ccc(C7CCC(=O)NC7=O)cn6)C5)CC4)c3)n2)c1F (mixture of isomers) [Compound 70, N-(3-{2-tert-butyl-5-[2-({3-[(1-{2-[(3R)-1-{5-[(3RS)-2,6-dioxopiperidin-3-yl]pyridin-2-yl}pyrrolidin-3-yl]ethyl}piperidin-4-yl)oxy]phenyl}amino)pyrimidin-4-yl]-1,3-thiazol-4-yl}-2-fluorophenyl)propane-1-sulfonamide]
< 10 nM | > 70% | > 500 nM | 30 to 70% | < 10 nM | 30 to 70% | < 10 nM | > 70% | – | – | – | – | – | – | – | – | O=C1CCN(c2ccc(N3CCC(CN4CCN(c5ccc(-n6cc(-c7cc(Cl)cc(NS(=O)(=O)N8CCCC8)c7F)c(-c7ccncc7)n6)cc5)CC4)CC3)cc2)C(=O)N1 [Compound 283, N-[5-chloro-3-(1-{4-[4-({1-[4-(2,4-dioxo-1,3-diazinan-1-yl)phenyl]piperidin-4-yl}methyl)piperazin-1-yl]phenyl}-3-(pyridin-4-yl)-1H-pyrazol-4-yl)-2-fluorophenyl]pyrrolidine-1-sulfonamide]
– | – | – | – | – | – | – | – | > 500 nM | 30 to 70% | > 500 nM | < 30% | > 500 nM | 30 to 70% | < 10 nM | > 70% | CCCS(=O)(=O)Nc1cccc(-c2nc(C(C)(C)C)sc2-c2ccnc(Nc3ccc(C4CCN(C(=O)[C@@H]5CCN(c6ccc(C7CCC(=O)NC7=O)cn6)C5)CC4)cc3)n2)c1F (mixture of isomers) [Compound 164, N-[3-(2-tert-butyl-5-{2-[(4-{1-[(3R)-1-{5-[(3RS)-2,6-dioxopiperidin-3-yl]pyridin-2-yl}pyrrolidine-3-carbonyl]piperidin-4-yl}phenyl)amino]pyrimidin-4-yl}-1,3-thiazol-4-yl)-2-fluorophenyl]propane-1-sulfonamide]
> 500 nM | < 30% | > 500 nM | < 30% | > 500 nM | < 30% | 50 to 500 nM | 30 to 70% | – | – | – | – | – | – | – | – | O=C1CCC(c2ccc(N3CCC4(CC3)CC(CN3CCN(c5ccc(-n6cc(-c7cc(Cl)cc(NS(=O)(=O)N8CC[C@@H](F)C8)c7F)c(-c7ccncc7)n6)nc5)CC3)C4)cc2)C(=O)N1 (mixture of isomers) [Compound 298, (3R)—N-{5-chloro-3-[1-(5-{4-[(7-{4-[(3RS)-2,6-dioxopiperidin-3-yl]phenyl}-7-azaspiro[3.5]nonan-2-yl)methyl]piperazin-1-yl}pyridin-2-yl)-3-(pyridin-4-yl)-1H-pyrazol-4-yl]-2-fluorophenyl}-3-fluoropyrrolidine-1-sulfonamide]
